Data from patent US11041859B2, “Methods of identifying SENP1 inhibitors” (priority 2013, dated 2021).

Tested on: HeLa cells
Assay: Accumulation of SUMOylated proteins in HeLa cells (Western blot, 48 hours)
Type: cell-based

## Nc1ccc2ccccc2c1/N=N/c1ccc(/C=C/c2ccc(/N=N/c3c(N)ccc4ccccc34)cc2S(=O)(=O)O)c(S(=O)(=O)O)c1 [SPI-01]
  accumulation of SUMO-1 conjugates in cells: less significant effects
Increasing concentrations
  accumulation of SUMO-2/3 conjugates in cells: accumulation correlated with inhibitor concentration
